Experimental data published in US20240010652A1, “COMPOSITIONS AND METHODS FOR TREATING KIT- AND PDGFRA-MEDIATED DISEASES” (Blueprint Medicines Corporation, priority 2020, published 2024).
pIC50: −log10 of the molar value. Where a name gives a salt, the structure may show the parent alone.

Tests used:
KIT D816V = KIT D816V (Homo sapiens, UniProt P10721, D816V); test: KIT (D816V) mutant biochemical enzymatic activity inhibition assay (EZReader 2 mobility shift) at APPKM for ATP; conditions: 0.3 nM enzyme, 20 μM ATP (APPKM), 1 μM Src tide, 25° C., 60 minutes; read-out: Kit D816V @ ATP Km IC50
Excerpt: PDGFRα and KIT enzymatic activity was monitored using the Perkin Elmer electrophoretic mobility shift technology platform, the EZReader 2.
Within the linear, steady-state phase of the kinase enzymatic reaction, the mixed pool of phosphorylated (product) and non-phosphorylated (substrate) peptides was passed through the microfluidic system of the PerkinElmer EZ Reader 2, under an applied electric potential difference. The presence of the phosphate group on the product peptide provided a difference in mass and charge between that of the substrate peptide, resulting in a separation of the substrate and product pools in the sample (Perrin et al., Expert Opin Drug Discovery 2010, Jan. 5(1):51-63).
As the product and substrate peptide mixture passes the lasers within the instrument, these pools are detected (λex=488 nm, λem=568 nm) and resolved as separate peaks. The ratio between these peaks reflects the activity of the compound at that concentration, in that well, under those conditions.
All test articles were dissolved in 100% DMSO at a stock concentration of 10 mM. A 100×, 10-point, 4-fold serial dilution of all test compounds was created in 100% DMSO, starting at a relevant concentration, usually 1 mM. A volume of 130 nL of each concentration was transferred to the relevant well of a 384-well assay plate (Greiner 781 201) using a TTPLabtech Mosquito nano-liter dispenser. Using the Multidrop, the remaining constituents of the reaction were then added to the 130 nL of compound as follows:
The reaction was stopped by the addition of 70 μl of Stop buffer (100 mM HEPES pH 7.5, 0.015% Brij 35, 35 mM EDTA and 0.2% of Coating Reagent 3, Caliper Lifesciences). The plate was read on a Caliper EZReader 2. For biochemical D816V and D842V activity, the following designations are used: ≤0.30 nM=A; ≥0.31 and <1.4 nM=B; ≥1.4 nM=C; and ND=not determined.

[1] = Brain penetration in rats: brain to plasma ratio (Kp,brain); type: in vivo; conditions: rat; Sprague-Dawley rats (3/compound), IV infusion 1 mg/kg/hr over 8 hours, plasma and brain homogenate at 24 hours, Cbrain/Cplasma, mean
Excerpt: To understand the brain penetration, brain to plasma ratios of the compounds were obtained in Sprague-Dawley (SD) rats. In vivo equilibrium distribution between blood and brain in preclinical species such as rats is a commonly used parameter to evaluate brain penetration. Kp,brain is the ratio of concentrations in brain and blood (Cbrain/Cplasma). The compound's passive diffusion characteristics, its affinity for membrane transporters at the blood-brain barrier (BBB), and the relative drug binding affinity differences between the plasma proteins and brain tissue influence the Kp,brain. Compounds with Kp,brain smaller than 0.1 have restricted access to the CNS, whereas compounds with Kp,brain greater than 0.3-0.5 are considered to have good brain penetration and compounds with Kp,brain greater than 1 freely cross the BBB (Expert Opin. Drug Delivery (2016) 13 (01): 85-92).
The brain penetration of the compounds disclosed herein was measured in Sprague-Dawley rats (3/compound). The animals received IV infusion of 1 mg/kg/hr of the compound over 8 hours via jugular vein cannulation. At 24 hours, blood was collected via tail vein bleeding or cardiac puncture (under anesthesia) and centrifuged to obtain plasma samples. Brain tissues were collected and homogenized with phosphate-buffered saline (PBS). […]

[2] = Unbound brain to plasma ratio (Kpuu,brain), from brain and plasma concentrations and equilibrium dialysis unbound fractions; type: in vivo, Sprague-Dawley rats; conditions: Sprague-Dawley, brain homogenate / plasma (unbound), intravenous, 1 mg/kg/hr; rat; calculated from brain and plasma concentrations and fu,brain (brain homogenate equilibrium dialysis), mean
Experimental: The brain penetration of the compounds disclosed herein was measured in Sprague-Dawley rats (3/compound). The animals received IV infusion of 1 mg/kg/hr of the compound over 8 hours via jugular vein cannulation. At 24 hours, blood was collected via tail vein bleeding or cardiac puncture (under anesthesia) and centrifuged to obtain plasma samples. Brain tissues were collected and homogenized with phosphate-buffered saline (PBS). The concentrations of the compounds were obtained in the plasma and brain homogenates by LC-MS/MS analysis.
Rat plasma protein binding of the tested compounds were evaluated in vitro using an equilibrium dialysis method. The tested compounds were assessed in 100% plasma in a dialysis block for 5 hours at 37° C. Samples from the donor and receiver sides were analyzed by LC-MS/MS. Plasma protein bound and unbound fractions were calculated using the following equations— […]
where: [Donor]5h is measured donor concentration at 5-hour; [Received]5h is measured receiver concentration at 5-hour; fb* is bound fraction determined from plasma; fu,p* is calculated unbound fraction for plasma. […]
Similarly, rat brain protein binding of the tested compounds was also evaluated in vitro using equilibrium dialysis method. […] of the compound was assessed in brain homogenate in a dialysis block for 5 hours at 37° C. Samples from the donor and receiver sides were analyzed by LC-MS/MS. […]

Chain of KIT D816V (P10721 26-976 D816V): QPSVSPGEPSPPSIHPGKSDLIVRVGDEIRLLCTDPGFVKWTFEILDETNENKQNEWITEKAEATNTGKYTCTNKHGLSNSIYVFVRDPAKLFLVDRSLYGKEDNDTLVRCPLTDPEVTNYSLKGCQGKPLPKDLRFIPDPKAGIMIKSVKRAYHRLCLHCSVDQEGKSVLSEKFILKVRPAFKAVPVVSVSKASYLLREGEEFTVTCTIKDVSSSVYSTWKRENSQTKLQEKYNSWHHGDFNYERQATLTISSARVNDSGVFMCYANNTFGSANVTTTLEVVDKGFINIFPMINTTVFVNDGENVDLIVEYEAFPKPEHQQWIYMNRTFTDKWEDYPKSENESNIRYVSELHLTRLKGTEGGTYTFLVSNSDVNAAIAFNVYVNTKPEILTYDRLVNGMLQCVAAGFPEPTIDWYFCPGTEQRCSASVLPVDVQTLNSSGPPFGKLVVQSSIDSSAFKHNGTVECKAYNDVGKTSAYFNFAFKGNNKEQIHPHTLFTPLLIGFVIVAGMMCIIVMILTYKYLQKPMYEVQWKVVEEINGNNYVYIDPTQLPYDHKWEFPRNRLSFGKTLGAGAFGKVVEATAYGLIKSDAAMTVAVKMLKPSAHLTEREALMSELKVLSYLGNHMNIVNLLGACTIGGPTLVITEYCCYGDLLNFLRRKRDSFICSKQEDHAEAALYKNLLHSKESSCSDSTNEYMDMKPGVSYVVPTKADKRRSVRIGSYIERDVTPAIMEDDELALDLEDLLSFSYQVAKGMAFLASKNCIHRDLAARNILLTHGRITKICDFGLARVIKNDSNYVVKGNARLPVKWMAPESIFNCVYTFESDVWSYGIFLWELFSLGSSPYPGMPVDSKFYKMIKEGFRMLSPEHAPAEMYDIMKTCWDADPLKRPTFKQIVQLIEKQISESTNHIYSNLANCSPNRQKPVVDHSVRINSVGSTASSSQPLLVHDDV

pIC50 (KIT D816V) | SMILES | Kp at 24 h [1] | Kp uu at 24 h [2]
8.85 to 9.51 | C[C@@H](O)Cn1cc(-c2cc3c(N4CCN(c5ncc([C@@](C)(N)c6ccc(F)cc6)cn5)CC4)ncnc3[nH]2)cn1 [Compound 4, (R)-1-(4-(4-(4-(5-((S)-1-amino-1-(4-fluorophenyl)ethyl)pyrimidin-2-yl)piperazin-1-yl)-7H-pyrrolo[2,3-d]pyrimidin-6-yl)-1H-pyrazol-1-yl)propan-2-ol] | – | –
8.85 to 9.51 | C[C@](N)(c1ccc(F)cc1)c1cnc(N2CCN(c3ncnc4[nH]c(-c5cnn(CC6COC6)c5)cc34)CC2)nc1 [Compound 6, (S)-1-(4-fluorophenyl)-1-(2-(4-(6-(1-(oxetan-3-ylmethyl)-1H-pyrazol-4-yl)-7H-pyrrolo[2,3-d]pyrimidin-4-yl)piperazin-1-yl)pyrimidin-5-yl)ethan-1-amine hydrochloride] | – | –
8.85 to 9.51 | C[C@H](O)Cn1cc(-c2cc3c(N4CCN(c5ncc([C@@](C)(N)c6ccc(F)cc6)cn5)CC4)ncnc3[nH]2)cn1 [Compound 5, (S)-1-(4-(4-(4-(5-((S)-1-amino-1-(4-fluorophenyl)ethyl)pyrimidin-2-yl)piperazin-1-yl)-7H-pyrrolo[2,3-d]pyrimidin-6-yl)-1H-pyrazol-1-yl)propan-2-ol hydrochloride] | – | –
≥ 9.52 | C[C@](N)(c1ccc(F)cc1)c1cnc(N2CCN(c3ncnc4[nH]c(-c5cnn(C6COC6)c5)cc34)CC2)nc1 [Compound 3, (S)-1-(4-fluorophenyl)-1-(2-(4-(6-(1-(oxetan-3-yl)-1H-pyrazol-4-yl)-7H-pyrrolo[2,3-d]pyrimidin-4-yl)piperazin-1-yl)pyrimidin-5-yl)ethan-1-amine] | – | –

SMILES | pIC50 (KIT D816V) | Kp at 24 h [1] | Kp uu at 24 h [2]
C[C@](N)(c1ccc(F)cc1)c1cnc(N2CCN(c3ncnc4[nH]c(-c5cnn(CCO)c5)cc34)CC2)nc1.Cl [Compound 2, (S)-2-(4-(4-(4-(5-(1-amino-1-(4-fluorophenyl)ethyl)pyrimidin-2-yl)piperazin-1-yl)-7H-pyrrolo[2,3-d]pyrimidin-6-yl)-1H-pyrazol-1-yl)ethan-1-ol hydrochloride] | ≥ 9.52 | 0.045 | 0.01
C[C@](N)(c1ccc(F)cc1)c1cnc(C2=CCN(c3ncnn4cc(-c5cnn(CCO)c5)cc34)CC2)nc1 [Compound 1, (S)-2-(4-(4-(4-(5-(1-amino-1-(4-fluorophenyl)ethyl)pyrimidin-2-yl)-3,6-dihydropyridin-1(2H)-yl)pyrrolo[2,1-f][1,2,4]triazin-6-yl)-1H-pyrazol-1-yl)ethan-1-ol] | 8.85 to 9.51 | 0.133 | 0.017
